The values that follow come from ChEMBL document CHEMBL1926637, “Stereoselective synthesis and QSAR study of cytotoxic 2-(4-oxo-thiazolidin-2-ylidene)-2-cyano-N-arylacetamides” (Eur J Med Chem, 2012).

What all share (format): functional, cell-based
One experiment deals with MCF7. The experiment is described as follows: Cytotoxicity against human MCF7 cells after 48 hrs by sulforhodamine B assay. The note with it: MCF7, 48 h.
The test system of another experiment is HepG2. The experiment is described as follows: Cytotoxicity against human HepG2 cells after 48 hrs by sulforhodamine B assay. The note with it: HepG2, 48 h. In general terms: Sulforhodamine B stains cellular protein and so reports cell mass.
Another experiment relates to HCT-116. The experiment is described as follows: Cytotoxicity against human HCT116 cells after 48 hrs by sulforhodamine B assay. The note with it: HCT-116, 48 h.

By IC50 is commonly meant the concentration at which inhibition is half-maximal. A lower IC50 goes with inhibition by little substance.

On to `N#C/C(C(=O)Nc1ccccc1)=c1/s/c(=C\c2ccccc2)c(=O)n1-c1ccccc1`, for which the half-inhibitory concentration (IC50) in the experiment on MCF7 was 75.3 µM; in the experiment with HepG2, 11 µM; in the experiment with HCT-116 it was 33.3 µM.

As for `COc1ccc(/C=c2\s/c(=C(/C#N)C(=O)Nc3ccccc3)n(-c3ccccc3)c2=O)cc1`, the IC50 in the experiment on MCF7 was 7.89 µM; with HepG2, 30.4 µM; in the experiment with HCT-116 it was 6.61 µM.

For the compound `N#C/C(C(=O)Nc1ccccc1)=c1/s/c(=C\c2ccccc2O)c(=O)n1-c1ccccc1`, the IC50 turned out to be 8.85 µM with MCF7, 83 µM with HepG2 and 7.8 µM in the experiment with HCT-116.

Take `Cc1ccc(NC(=O)/C(C#N)=c2\s/c(=C\c3ccccc3)c(=O)n2-c2ccccc2)cc1`: the IC50 came out at 55.5 µM in the experiment on MCF7, 38.2 µM with HepG2 and 11 µM in the experiment on HCT-116.

As to `COc1ccc(/C=c2\s/c(=C(/C#N)C(=O)Nc3ccc(C)cc3)n(-c3ccccc3)c2=O)cc1`, the half-inhibitory concentration (IC50) with MCF7 is greater than 107 µM; with HepG2 it was 37.4 µM; in the experiment on HCT-116 it was 9.95 µM.

On to `Cc1ccc(NC(=O)/C(C#N)=c2\s/c(=C\c3ccc(Cl)cc3)c(=O)n2-c2ccccc2)cc1`, for which the IC50 in the experiment on MCF7 turned out to be 28.6 µM; in the experiment with HepG2, 48.3 µM; in the experiment with HCT-116 it was 28.4 µM.

With `Cc1ccc(NC(=O)/C(C#N)=c2\s/c(=C\c3ccccc3O)c(=O)n2-c2ccccc2)cc1`, the 50% inhibitory concentration (IC50) in the experiment on MCF7 is greater than 110 µM; with HepG2, 8.25 µM; in the experiment on HCT-116, 6.92 µM.

Turning to `N#C/C(C(=O)Nc1ccc(Cl)cc1)=c1/s/c(=C\c2ccccc2)c(=O)n1-c1ccccc1`, the half-inhibitory concentration (IC50) in the experiment with MCF7 is 77.5 µM; in the experiment on HepG2, 49.1 µM; with HCT-116 it was 38.9 µM.

`N#C/C(C(=O)Nc1ccc(Cl)cc1)=c1/s/c(=C\c2ccc(Cl)cc2)c(=O)n1-c1ccccc1`: the IC50 was greater than 102 µM in the experiment on MCF7, greater than 102 µM with HepG2 and 9.15 µM in the experiment on HCT-116.

Take `N#C/C(C(=O)Nc1ccc(Cl)cc1)=c1/s/c(=C\c2ccccc2O)c(=O)n1-c1ccccc1`: the 50% inhibitory concentration (IC50) with MCF7 is 7.89 µM; with HepG2, 12.4 µM; in the experiment with HCT-116, 6.92 µM.

As for `N#C/C(C(=O)Nc1ccccc1)=C1/S/C(=N\Nc2ccccc2)C(=O)N1c1ccccc1`, the IC50 in the experiment on HepG2 is 18.8 µM; in the experiment on HCT-116, greater than 114 µM.

Consider `COc1ccc(N/N=C2\S/C(=C(/C#N)C(=O)Nc3ccccc3)N(c3ccccc3)C2=O)cc1`, for which the figures for the IC50 in the experiment on MCF7 and with HCT-116 were 17.6 µM and 46.4 µM, respectively.

Regarding `Cc1ccc(NC(=O)/C(C#N)=C2\S/C(=N\Nc3ccccc3)C(=O)N2c2ccccc2)cc1`, the IC50 was 24.2 µM with HepG2 and greater than 110 µM with HCT-116.

`COc1ccc(N/N=C2\S/C(=C(/C#N)C(=O)Nc3ccc(C)cc3)N(c3ccccc3)C2=O)cc1`: the concentration for half-maximal inhibition (IC50) with HepG2 was 34.1 µM; in the experiment with HCT-116, greater than 103 µM.

Turning to `Cc1ccc(NC(=O)/C(C#N)=C2\S/C(=N\Nc3ccc(Cl)cc3)C(=O)N2c2ccccc2)cc1`, the IC50 is greater than 102 µM in the experiment with MCF7 and 14.9 µM in the experiment on HCT-116.

Regarding `COc1cccc2c1C(=O)c1c(O)c3c(c(O)c1C2=O)C[C@@](O)(C(=O)CO)C[C@@H]3O[C@H]1C[C@H](N)[C@H](O)[C@H](C)O1` [DOXORUBICIN], the IC50 is 7.36 µM in the experiment with HepG2 and 6.86 µM in the experiment on HCT-116.
